Key:
[1] = log P determination by HPLC retention times (alkan-2-one calibration); details: preparation examples in the text
Pyrenophora teres = Pyrenophora teres test (barley)/protective; assay type: in vivo; details: in vivo
Protocol: Solvent: 49 parts by weight of N,N-dimethylformamide
Emulsifier: 1 part by weight of alkylaryl polyglycol ether
To produce a suitable preparation of active compounds, 1 part by weight of active compound is mixed with the stated amounts of solvent and emulsifier, and the concentrate is diluted with water to the desired concentration.
To test for protective activity, young barley plants are sprayed with the active compound preparation at the stated application rate. 1 day after the treatment, the plants are inoculated with an aqueous spore suspension of Pyrenophora teres and then remain at 100% rel. atmospheric humidity and 22° C. for 48 h. The plants are then placed in a greenhouse at 80% rel. atmospheric humidity and a temperature of 20° C.
Evaluation is carried out 7-9 days after the inoculation. 0% means an efficacy which corresponds to that of the control, whereas an efficacy of 100% means that no infection is observed.

Structure (SMILES)	chromatographic logP ([1]; log P(HCOOH), HCOOH)	further results
COC(=O)CC(=NN1CCC(C)C1=O)c1ccc(F)cc1 (centres unmarked)	2.09	
CC(CCC(=O)NN=C(c1ccccc1)c1ccccc1)OS(C)(=O)=O (centres unmarked) [5-[2-(diphenylmethylene)hydrazino]-5-oxopentan-2-yl methanesulphonate]	2.82	
CC(C)CNc1cc(-c2c(-c3ccccc3)nn3c2CCC3)ccn1 [Example 72]		efficacy in % (Pyrenophora teres): 80%
CC(C)CNc1cc(-c2c(-c3cccc(F)c3)nn3c2CCC3)ccn1 [Example 73]		efficacy in % (Pyrenophora teres): 70%
Nc1cc(-c2c(-c3ccc(F)cc3)nn3c2CCOC3)ccn1 [Example 103]		efficacy in % (Pyrenophora teres): 90%
CC(C)CC(=O)Nc1cc(-c2c(-c3ccc(F)cc3)nn3c2CCOC3(C)C)ccn1 [Example 105]		efficacy in % (Pyrenophora teres): 95%
FC(F)(F)c1ccc(C#Cc2ccncc2)cc1 [II-1, 4-{[4-(Trifluoromethyl)phenyl]ethynyl}pyridine]	2.86	
FC(F)(F)c1cccc(C#Cc2ccncc2)c1 [II-2, 4-{[3-(Trifluoromethyl)phenyl]ethynyl}pyridine]		chromatographic logP ([1]; pH 7, log P(pH7), pH7): 3.5
COc1ccc(C#Cc2ccncc2)cc1 [II-3, 4-{[4-(Methoxy)phenyl]ethynyl}pyridine]		chromatographic logP ([1]; pH 7, log P(pH7), pH7): 2.68
Fc1ccc(C#Cc2ccncc2)cc1 [II-4, 4-{[4-Fluorophenyl]ethynyl}pyridine]		chromatographic logP ([1]; pH 7, log P(pH7), pH7): 2.81
Clc1ccc(C#Cc2ccncc2)cc1 [II-5, 4-{[4-Chlorophenyl]ethynyl}pyridine]	2.43	
Fc1ccc(C#Cc2ccnc(Cl)c2)cc1 [II-6, 2-Chloro-4-[(4-fluorophenyl)ethynyl]pyridine]	3.8	
[O-]c1on[n+]2c1CCCCC2 [III-1, 5,6,7,8-Tetrahydro-4H-[1,2,3]oxadiazolo[3,4-a]azepin-9-ium 3-olate]	0.6	
[O-]c1on[n+]2c1CCCC2 [III-2, 4,5,6,7-Tetrahydro[1,2,3]oxadiazolo[3,4-a]pyridin-8-ium 3-olate]	0.59	
CC(C)(C)OC1Cc2c([O-])on[n+]2C1 (centres unmarked) [III-4, 5-tert-Butoxy-5,6-dihydro-4H-pyrrolo[1,2-c][1,2,3]oxadiazol-7-ium 3-olate]	1.34	
Fc1ccc(-c2cc3n(n2)CCCC3)cc1 [VII-1, 2-(4-Fluorophenyl)-4,5,6,7-tetrahydropyrazolo[1,5-a]pyridine]	2.76	
c1ccc(-c2cc3n(n2)CCC3)cc1 [VII-2, 2-(Phenyl)-5,6-dihydro-4H-pyrrolo[1,2-b]pyrazole]	2.19	
Clc1ccc(-c2cc3n(n2)CCC3)cc1 [VII-4, 2-(4-Chlorophenyl)-5,6-dihydro-4H-pyrrolo[1,2-b]pyrazole]	2.86	
c1ccc(-c2cc3n(n2)CCCC3)cc1 [VII-5, 2-(Phenyl)-4,5,6,7-tetrahydropyrazolo[1,5-a]pyridine]	2.57	
FC(F)(F)c1cccc(-c2cc3n(n2)CCC3)c1 [VII-6, 2-[3-(Trifluoromethyl)phenyl]-5,6-dihydro-4H-pyrrolo[1,2-b]pyrazole]	3.25	
COc1ccc(-c2cc3n(n2)CCC3)cc1 [VII-7, 2-[4-(Methoxy)phenyl]-5,6-dihydro-4H-pyrrolo[1,2-b]pyrazole]	2.17	
Cc1ccc(-c2cc3n(n2)CCC3)cc1 [VII-8, 2-[4-Methylphenyl]-5,6-dihydro-4H-pyrrolo[1,2-b]pyrazole]	2.64	
FC(F)(F)c1ccc(-c2cc3n(n2)CCC3)cc1 [VII-9, 2-[4-(Trifluoromethyl)phenyl]-5,6-dihydro-4H-pyrrolo[1,2-b]pyrazole]	3.2	
Fc1cccc(-c2cc3n(n2)CCC3)c1 [VII-10, 2-[3-Fluorophenyl]-5,6-dihydro-4H-pyrrolo[1,2-b]pyrazole]	2.46	
c1csc(-c2cc3n(n2)CCCC3)c1 [VII-11, 2-(2-Thienyl)-4,5,6,7-tetrahydropyrazolo[1,5-a]pyridine]	2.42	
c1cc(-c2cc3n(n2)CCCC3)cs1 [VII-12, 2-(3-Thienyl)-4,5,6,7-tetrahydropyrazolo[1,5-a]pyridine]	2.25	
